According to ChEMBL document CHEMBL1201862, “PubChem BioAssay data set” (2004):
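Protocol summary: plate cells (96-well), add compound at 5 concentrations, incubate 48 h, interpolate endpoints linearly. GI50: concentration for 50% inhibition of growth.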 Active and inactive are the calls of the source. No stated cut-off is given here; in the data, active = GI50 up to about 1.1 µM and inactive = higher.

Experiments:
Test in all cases: NCI-60 cell line screen, 48 h
RPMI-8226 = test system: RPMI-8226
HCT-15 = test system: HCT-15
ACHN = test system: ACHN
NCI-H460 = test system: NCI-H460
TK-10 = test system: TK-10
HOP-62 = test system: HOP-62
Hs-578T = test system: Hs-578T
EKVX = test system: EKVX
NCI-H226 = test system: NCI-H226
IGROV-1 = test system: IGROV-1
OVCAR-4 = test system: OVCAR-4
SF-268 = test system: SF-268
SN12C = test system: SN12C
MDA-MB-435 = test system: MDA-MB-435
UACC-62 = test system: UACC-62
SK-MEL-5 = test system: SK-MEL-5
HT-29 = test system: HT-29
HCT-116 = test system: HCT-116
Malme-3M = test system: Malme-3M
SNB-75 = test system: SNB-75

Row | SMILES | GI50 (RPMI-8226) | GI50 (HCT-15) [µM] | GI50 (ACHN) | GI50 (NCI-H460) | GI50 (TK-10) | GI50 (HOP-62) | GI50 (Hs-578T) | GI50 (EKVX) | GI50 (NCI-H226) | GI50 (IGROV-1) | GI50 (OVCAR-4) | GI50 (SF-268) | GI50 (SN12C) | GI50 (MDA-MB-435) | GI50 (UACC-62) | GI50 (SK-MEL-5) | GI50 (HT-29) | GI50 (HCT-116) | GI50 (Malme-3M) | GI50 (SNB-75)
1 | NNS(=O)(=O)c1cc(C(=O)O)cc(C(=O)O)c1 | > 100 µM (inactive) | > 100 | > 100 µM (inactive) | > 100 µM (inactive) | > 100 µM (inactive) | > 100 µM (inactive) | 1.09 µM (active) | > 100 µM (inactive) | > 100 µM (inactive) | > 100 µM (inactive) | > 100 µM (inactive) | > 100 µM (inactive) | > 100 µM (inactive) | > 100 µM (inactive) | > 100 µM (inactive) | > 100 µM (inactive) | > 100 µM (inactive) | > 100 µM (inactive) | > 100 µM (inactive) | –
2 | COc1ccc(/C(=N\Nc2ccccn2)c2ccccn2)cc1 | < 0.0268 µM (active) | 0.0103 | < 0.01 µM (active) | < 0.0287 µM (active) | – | 0.217 µM (active) | 0.625 µM (active) | < 0.01 µM (active) | < 0.01 µM (active) | 0.0167 µM (active) | 11.4 µM (inactive) | 0.0311 µM (active) | < 0.01 µM (active) | 0.156 µM (active) | 0.104 µM (active) | 0.0303 µM (active) | < 0.01 µM (active) | < 0.01 µM (active) | < 0.01 µM (active) | 0.414 µM (active)
3 | O=C(CC(=O)Nc1ccccc1)NNC(c1cc(/N=N/c2ccc(Br)cc2)ccc1O)P(O)O (stereo not given) | 1.86 µM (inactive) | 0.425 | 2.12 µM (inactive) | 0.447 µM (active) | 0.851 µM (active) | 6.79 µM (inactive) | > 10 µM (inactive) | – | 1.57 µM (inactive) | 9.62 µM (inactive) | 1.85 µM (inactive) | 0.964 µM (active) | 4.04 µM (inactive) | 1.77 µM (inactive) | 1.34 µM (inactive) | 1.53 µM (inactive) | > 10 µM (inactive) | 0.504 µM (active) | 2.38 µM (inactive) | 2.32 µM (inactive)
4 | O=c1nc(N2CCN(c3ccccc3)CC2)ccn1C1OC(CO)C(O)C1O (stereo not given) | 36.9 µM (inactive) | > 100 | > 100 µM (inactive) | > 100 µM (inactive) | > 100 µM (inactive) | > 100 µM (inactive) | > 100 µM (inactive) | 61.2 µM (inactive) | > 100 µM (inactive) | 60.5 µM (inactive) | 27.1 µM (inactive) | > 100 µM (inactive) | > 100 µM (inactive) | 32.2 µM (inactive) | 59.7 µM (inactive) | 42.6 µM (inactive) | 49.2 µM (inactive) | 56 µM (inactive) | > 100 µM (inactive) | –
5 | C(#C[C@@]12CCC[C@@H]1N(Cc1ccccc1)CO2)c1ccc2c(c1)OCO2 | > 100 µM (inactive) | > 100 | > 100 µM (inactive) | > 100 µM (inactive) | – | > 100 µM (inactive) | 65 µM (inactive) | > 100 µM (inactive) | > 100 µM (inactive) | – | > 100 µM (inactive) | > 100 µM (inactive) | > 100 µM (inactive) | > 100 µM (inactive) | > 100 µM (inactive) | – | > 100 µM (inactive) | > 100 µM (inactive) | > 100 µM (inactive) | > 100 µM (inactive)
6 | O=C(Cn1c(=O)oc2ccc(C(=O)c3ccc(F)cc3)cc21)c1ccccc1 | > 100 µM (inactive) | > 100 | > 100 µM (inactive) | 53.5 µM (inactive) | > 100 µM (inactive) | > 100 µM (inactive) | > 100 µM (inactive) | – | > 100 µM (inactive) | > 100 µM (inactive) | > 100 µM (inactive) | > 100 µM (inactive) | > 100 µM (inactive) | > 100 µM (inactive) | > 100 µM (inactive) | 48 µM (inactive) | 42.7 µM (inactive) | > 100 µM (inactive) | > 100 µM (inactive) | > 100 µM (inactive)
7 | CCN(CC)CC(=O)Nc1c(C(N)=O)nnn1Cc1cc(Cl)c(C(=O)c2ccc(Cl)cc2)c(Cl)c1 | 22.3 µM (inactive) | 16.6 | 29.7 µM (inactive) | – | 22.8 µM (inactive) | 18.6 µM (inactive) | 14.3 µM (inactive) | 27.2 µM (inactive) | 14.4 µM (inactive) | 21.4 µM (inactive) | 31 µM (inactive) | 19.2 µM (inactive) | 22.6 µM (inactive) | 18.5 µM (inactive) | 17.6 µM (inactive) | 16.4 µM (inactive) | 19.6 µM (inactive) | 16.5 µM (inactive) | – | 21 µM (inactive)
8 | Cc1c/c(=N\c2ccc3c(c2)c(N)cc(C)[n+]3C)nc(N)n1C | > 100 µM (inactive) | > 100 | > 100 µM (inactive) | > 100 µM (inactive) | > 100 µM (inactive) | 87.7 µM (inactive) | > 100 µM (inactive) | > 100 µM (inactive) | – | > 100 µM (inactive) | > 100 µM (inactive) | > 100 µM (inactive) | 92.7 µM (inactive) | > 100 µM (inactive) | > 100 µM (inactive) | > 100 µM (inactive) | > 100 µM (inactive) | > 100 µM (inactive) | > 100 µM (inactive) | > 100 µM (inactive)
9 | CN(Cc1c[n+]([O-])c2nc(N)nc(N)c2n1)c1ccc(C(=O)NC23CC4CC(CC(C4)C2)C3)cc1 | 93.1 µM (inactive) | > 100 | > 100 µM (inactive) | > 100 µM (inactive) | > 100 µM (inactive) | > 100 µM (inactive) | 10.6 µM (inactive) | > 100 µM (inactive) | > 100 µM (inactive) | 54.3 µM (inactive) | – | 26.3 µM (inactive) | > 100 µM (inactive) | 77.4 µM (inactive) | > 100 µM (inactive) | 34.7 µM (inactive) | – | > 100 µM (inactive) | 78.2 µM (inactive) | 20.2 µM (inactive)
10 | Cc1ccc(S(=O)(=O)N2CC2CCCCC=O)cc1 (stereo not given) | 37.8 µM (inactive) | > 100 | 31.3 µM (inactive) | – | > 100 µM (inactive) | > 100 µM (inactive) | 44.3 µM (inactive) | > 100 µM (inactive) | > 100 µM (inactive) | 80.9 µM (inactive) | > 100 µM (inactive) | > 100 µM (inactive) | > 100 µM (inactive) | > 100 µM (inactive) | 50.7 µM (inactive) | 54.2 µM (inactive) | 26.8 µM (inactive) | 57 µM (inactive) | > 100 µM (inactive) | > 100 µM (inactive)
11 | COC1(C(C)(C)C)C=C(C(C)(C)C)P(=O)(O)O1 (stereo not given) | > 100 µM (inactive) | > 100 | > 100 µM (inactive) | > 100 µM (inactive) | > 100 µM (inactive) | > 100 µM (inactive) | > 100 µM (inactive) | > 100 µM (inactive) | – | > 100 µM (inactive) | > 100 µM (inactive) | > 100 µM (inactive) | > 100 µM (inactive) | > 100 µM (inactive) | > 100 µM (inactive) | > 100 µM (inactive) | > 100 µM (inactive) | > 100 µM (inactive) | > 100 µM (inactive) | > 100 µM (inactive)
